Patent publication US12012374B2, “Agonists of ROR GAMMAt” (BRISTOL-MYERS SQUIBB COMPANY, priority 2019, dated 2024)

target: T1, human RORgT (Homo sapiens, UniProt P51449); assay: RORgT Gal4 Luciferase Reporter Gene Assay; format: cell-based; conditions: engineered Jurkat cells overexpressing RORgT (LBD or full length) fused with Gal4 Luc reporter; 18 hours incubation
T1 construct: expressed in transfected cells; host or cells: engineered Jurkat cells (Jurkat pEx/Gal/hRORγ CLBD/HYG pG5luc/blast)
T1 sequence (P51449 267-516): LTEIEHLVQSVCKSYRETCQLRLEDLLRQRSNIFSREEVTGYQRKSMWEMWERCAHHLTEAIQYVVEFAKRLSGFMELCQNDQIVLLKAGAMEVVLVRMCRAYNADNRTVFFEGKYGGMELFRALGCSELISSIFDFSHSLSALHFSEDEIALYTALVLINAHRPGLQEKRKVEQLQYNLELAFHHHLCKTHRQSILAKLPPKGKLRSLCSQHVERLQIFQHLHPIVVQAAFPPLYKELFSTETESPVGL

| SMILES | EC50 |
| --- | --- |
| C[C@H](Oc1ccc([C@]2(S(=O)(=O)c3ccc(F)cc3)CCN(C(=O)C3CCS(=O)(=O)CC3)C2)cc1)c1ccccc1 [Example 37, 4-[(3R)-3-(4-fluorobenzenesulfonyl)-3-{4-[(1S)-1-phenylethoxy]phenyl}pyrrolidine-1-carbonyl]-1λ^6-thiane-1,1-dione] | 77 nM |
| NC(=O)[C@H]1CC[C@H](C(=O)N2CC[C@](c3ccc(OCc4c(F)cccc4C(F)(F)F)cc3)(S(=O)(=O)c3ccc(F)cc3)C2)CC1 [Example 44, (1r,4r)-4-[(3R)-3-(4-{[2-fluoro-6-(trifluoromethyl)phenyl]methoxy}phenyl)-3-(4-fluorobenzenesulfonyl)pyrrolidine-1-carbonyl]cyclohexane-1-carboxamide] | 195 nM |
| O=C(O)[C@H]1CC[C@H](C(=O)N2CC[C@](c3ccc(OCc4c(Cl)cccc4Cl)cc3)(S(=O)(=O)c3ccccc3)C2)CC1 [Example 34, (1r,4r)-4-[(3R)-3-(benzenesulfonyl)-3-{4-[(2,6-dichlorophenyl)methoxy]phenyl}pyrrolidine-1-carbonyl]cyclohexane-1-carboxylic acid] | 275 nM |
| O=C(O)[C@H]1CC[C@H](C(=O)N2CC[C@](c3ccc(OCc4c(Cl)cccc4Cl)cc3)(S(=O)(=O)c3ccc(F)cc3)C2)CC1 [Example 35, (1r,4r)-4-[(3R)-3-{4-[(2,6-dichlorophenyl)methoxy]phenyl}-3-(4-fluorobenzenesulfonyl)pyrrolidine-1-carbonyl]cyclohexane-1-carboxylic acid] | 58 nM |
| O=S(=O)(c1ccccc1)C1(c2ccc(OCc3cccc(F)c3)cc2)CCCC1 [Example 11, 1-[1-(benzenesulfonyl)cyclopentyl]-4-[(3-fluorophenyl)methoxy]benzene] | 397 nM |
| O=S(=O)(c1ccccc1)C1(c2ccc(OCc3ccccc3)cc2)CCCC1 [Example 6, 1-[1-(benzenesulfonyl)cyclopentyl]-4-(benzyloxy)benzene] | 130 nM |
| O=C(C1CCS(=O)(=O)CC1)N1CCC(c2ccc(OCc3ccccc3)cc2)(S(=O)(=O)c2cccc(C(F)(F)F)c2)C1 (stereo not shown) [Example 21, 4-{3-[4-(benzyloxy)phenyl]-3-[3-(trifluoromethyl)benzenesulfonyl]pyrrolidine-1-carbonyl}-1λ^6-thiane-1,1-dione] | 462 nM |
| O=C(O)[C@H]1CC[C@H](C(=O)N2CC[C@](c3ccc(OCc4c(F)cccc4C(F)(F)F)cc3)(S(=O)(=O)c3ccccc3)C2)CC1 [Example 41, (1r,4r)-4-[(3R)-3-(benzenesulfonyl)-3-(4-{[2-fluoro-6-(trifluoromethyl)phenyl]methoxy}phenyl)pyrrolidine-1-carbonyl]cyclohexane-1-carboxylic acid] | 88 nM |
| O=C(N1CC[C@](c2ccc(OCc3c(F)cccc3C(F)(F)F)cc2)(S(=O)(=O)c2ccccc2)C1)C1(O)CCS(=O)(=O)CC1 [Example 40, 4-[(3R)-3-(benzenesulfonyl)-3-(4-{[2-fluoro-6-(trifluoromethyl)phenyl]methoxy}phenyl)pyrrolidine-1-carbonyl]-4-hydroxy-1λ^6-thiane-1,1-dione] | 18 nM |
| O=S(=O)(c1ccc(F)cc1)C1(c2ccc(OCCc3ccccc3)cc2)CCCC1 [Example 4, 1-[1-(4-fluorobenzenesulfonyl)cyclopentyl]-4-(2-phenylethoxy)benzene] | 139 nM |
| O=C(C1CCS(=O)(=O)CC1)N1CCC(c2ccc(OCc3c(F)ccc(F)c3Cl)cc2)(S(=O)(=O)c2ccccc2)C1 (stereo not shown) [Example 27, 4-[3-(benzenesulfonyl)-3-{4-[(2-chloro-3,6-difluorophenyl)methoxy]phenyl}pyrrolidine-1-carbonyl]-1λ^6-thiane-1,1-dione] | 109 nM |
| O=C1NC(=O)C(CC(=O)N2CCC(c3ccc(OCc4ccccc4)cc3)(S(=O)(=O)c3ccc(F)cc3)C2)S1 (stereo not shown) [Example 20, 5-(2-{3-[4-(benzyloxy)phenyl]-3-(4-fluorobenzenesulfonyl)pyrrolidin-1-yl}-2-oxoethyl)-1,3-thiazolidine-2,4-dione] | 810 nM |
| O=C(O)[C@H]1CC[C@H](C(=O)N2CCC(c3ccc(OCc4c(Cl)cccc4Cl)cc3)(S(=O)(=O)c3ccccc3)C2)CC1 (stereo partly shown) [Example 24, (1r,4r)-4-[3-(benzenesulfonyl)-3-{4-[(2,6-dichlorophenyl)methoxy]phenyl}pyrrolidine-1-carbonyl]cyclohexane-1-carboxylic acid] | 552 nM |
| O=C(C1CCS(=O)(=O)CC1)N1CCC(c2ccc(OCc3c(F)cccc3Cl)cc2)(S(=O)(=O)c2ccccc2)C1 (stereo not shown) [Example 29, 4-[3-(benzenesulfonyl)-3-{4-[(2-chloro-6-fluorophenyl)methoxy]phenyl}pyrrolidine-1-carbonyl]-1λ^6-thiane-1,1-dione] | 39 nM |

Continued, values first:

| EC50 | SMILES |
| --- | --- |
| 343 nM | O=C(C1CCS(=O)(=O)CC1)N1CCC(c2ccc(OCc3ccc(F)cc3Cl)cc2)(S(=O)(=O)c2ccccc2)C1 (stereo not shown) [Example 31, 4-[3-(benzenesulfonyl)-3-{4-[(2-chloro-4-fluorophenyl)methoxy]phenyl}pyrrolidine-1-carbonyl]-1λ^6-thiane-1,1-dione] |
| 293 nM | O=C(O)[C@H]1CC[C@H](C(=O)N2CC[C@](c3ccc(OCc4c(Cl)cccc4C(F)(F)F)cc3)(S(=O)(=O)c3ccc(F)cc3)C2)CC1 [Example 47, (1r,4r)-4-[(3R)-3-(4-{[2-chloro-6-(trifluoromethyl)phenyl]methoxy}phenyl)-3-(4-fluorobenzenesulfonyl)pyrrolidine-1-carbonyl]cyclohexane-1-carboxylic acid] |
| 87 nM | O=S(=O)(c1ccccc1)C1(c2ccc(OCc3ccc(F)cc3)cc2)CCCC1 [Example 12, 1-[1-(benzenesulfonyl)cyclopentyl]-4-[(4-fluorophenyl)methoxy]benzene] |
| 46 nM | O=C(C1CCS(=O)(=O)CC1)N1CCC(c2ccc(OCc3c(Cl)cccc3Cl)cc2)(S(=O)(=O)c2ccccc2)C1 (stereo not shown) [Example 23, 4-[3-(benzenesulfonyl)-3-{4-[(2,6-dichlorophenyl)methoxy]phenyl}pyrrolidine-1-carbonyl]-1λ^6-thiane-1,1-dione] |
| 14 nM | O=C(N1CC[C@](c2ccc(OCc3c(F)cccc3C(F)(F)F)cc2)(S(=O)(=O)c2ccc(F)cc2)C1)C1(O)CCS(=O)(=O)CC1 [Example 43, 4-[(3R)-3-(4-{[2-fluoro-6-(trifluoromethyl)phenyl]methoxy}phenyl)-3-(4-fluorobenzenesulfonyl)pyrrolidine-1-carbonyl]-4-hydroxy-1λ^6-thiane-1,1-dione] |
| 28 nM | O=C(C1CCS(=O)(=O)CC1)N1CCC(c2ccc(OCc3c(F)cccc3C(F)(F)F)cc2)(S(=O)(=O)c2ccccc2)C1 (stereo not shown) [Example 30, 4-[3-(benzenesulfonyl)-3-(4-{[2-fluoro-6-(trifluoromethyl)phenyl]methoxy}phenyl)pyrrolidine-1-carbonyl]-1λ^6-thiane-1,1-dione] |
| 267 nM | NC(=O)N1CCC(C(=O)N2CCC(c3ccc(OCc4c(Cl)cccc4Cl)cc3)(S(=O)(=O)c3ccccc3)C2)CC1 (stereo not shown) [Example 25, 4-[3-(benzenesulfonyl)-3-{4-[(2,6-dichlorophenyl)methoxy]phenyl}pyrrolidine-1-carbonyl]piperidine-1-carboxamide] |
| 351 nM | NC(=O)[C@H]1CC[C@H](C(=O)N2CC[C@](c3ccc(OCc4c(Cl)cccc4C(F)(F)F)cc3)(S(=O)(=O)c3ccc(F)cc3)C2)CC1 [Example 45, (1r,4r)-4-[(3R)-3-(4-{[2-chloro-6-(trifluoromethyl)phenyl]methoxy}phenyl)-3-(4-fluorobenzenesulfonyl)pyrrolidine-1-carbonyl]cyclohexane-1-carboxamide] |
| 212 nM | O=S(=O)(c1ccc(Cl)cc1)C1(c2ccc(OCc3ccccc3)cc2)CCCC1 [Example 9, 1-(benzyloxy)-4-[1-(4-chlorobenzenesulfonyl)cyclopentyl]benzene] |
| 526 nM | O=C(Cn1ccnn1)N1CCC(c2ccc(OCc3ccccc3)cc2)(S(=O)(=O)c2ccc(F)cc2)C1 (stereo not shown) [Example 17, 1-{3-[4-(benzyloxy)phenyl]-3-(4-fluorobenzenesulfonyl)pyrrolidin-1-yl}-2-(1H-1,2,3-triazol-1-yl)ethan-1-one] |
| 514 nM | O=C(Cc1ccncc1)N1CCC(c2ccc(OCc3ccccc3)cc2)(S(=O)(=O)c2cccc(C(F)(F)F)c2)C1 (stereo not shown) [Example 22, 1-{3-[4-(benzyloxy)phenyl]-3-[3-(trifluoromethyl)benzenesulfonyl]pyrrolidin-1-yl}-2-(pyridin-4-yl)ethan-1-one] |
